What was measured:
[1] = system: Olig (oligonucleotide fragment of the UCP1 gene promoter; Oligo) (DNA, G4) CGAGGGTGGGTAGGAGGGGACGCGGGGACT; assay: UV-vis absorption; conditions: 100 mM KCl; 10 mM Tris-HCl pH 7.4, 25°C; 6 μM DNA, 24 μM berberine; ~45% hypochromicity, 340 to 348 nm
[2] = system: Olig (oligonucleotide fragment of the UCP1 gene promoter; Oligo) (DNA, G4) CGAGGGTGGGTAGGAGGGGACGCGGGGACT; assay: fluorescence enhancement; conditions: 100 mM KCl; 10 mM Tris-HCl pH 7.4, 25°C; 6 μM DNA, 24 μM berberine; excitation 280 nm
[3] = system: Olig (oligonucleotide fragment of the UCP1 gene promoter; Oligo) (DNA, G4) CGAGGGTGGGTAGGAGGGGACGCGGGGACT; assay: native gel electrophoresis; conditions: 100 mM KCl; 10 mM Tris-HCl pH 7.4, 4°C overnight; 6 μM DNA, 24 μM berberine; Uni-G4 to Tetra-G4

Measured: binding

COc1ccc2cc3[n+](cc2c1OC)CCc1cc2c(cc1-3)OCO2
yes: [1] | [2] | [3]

From PMC9828300 (2022)
